# Measurements taken from PubChem BioAssay (NCI).
#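 96-well plates; 48 h exposure; 5 concentrations. Endpoints by linear interpolation between flanking doses. Not reached: highest tested concentration assigned. GI50 is the concentration that inhibits growth by half. The concentration for full growth arrest is given as TGI.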
# Key:
# Assay in all cases: inhibition of tumour cell growth, NCI panel, 48 h
# SNB-75 CNS = tested on: SNB-75 CNS
# SF-295 CNS = tested on: SF-295 CNS
# SK-MEL-28 melanoma = tested on: SK-MEL-28 melanoma
# MDA-MB-435 = tested on: MDA-MB-435
# SF-539 CNS = tested on: SF-539 CNS
# UACC-257 melanoma = tested on: UACC-257 melanoma
# ACHN renal = tested on: ACHN renal
# SK-MEL-2 melanoma = tested on: SK-MEL-2 melanoma
# HOP-92 NSCLC = tested on: HOP-92 NSCLC
# TK-10 renal = tested on: TK-10 renal
# HCC-2998 colon = tested on: HCC-2998 colon
# SN12C renal = tested on: SN12C renal
# PC-3 prostate = tested on: PC-3 prostate
# MOLT-4 leukemia = tested on: MOLT-4 leukemia
# CAKI-1 renal = tested on: CAKI-1 renal
# A498 renal = tested on: A498 renal
# OVCAR-5 ovarian = tested on: OVCAR-5 ovarian
# MDA-MB-231 breast = tested on: MDA-MB-231 breast
# SF-268 CNS = tested on: SF-268 CNS
# OVCAR-3 ovarian = tested on: OVCAR-3 ovarian
# SW-620 colon = tested on: SW-620 colon
# NCI-H460 lung = tested on: NCI-H460 lung
# HOP-62 NSCLC = tested on: HOP-62 NSCLC
# MCF7 breast = tested on: MCF7 breast
# UO-31 renal = tested on: UO-31 renal
# SK-MEL-5 melanoma = tested on: SK-MEL-5 melanoma
# HCT-116 colon = tested on: HCT-116 colon
# OVCAR-8 ovarian = tested on: OVCAR-8 ovarian
# CCRF-CEM leukemia = tested on: CCRF-CEM leukemia
# 786-0 renal = tested on: 786-0 renal
# NCI-H522 lung = tested on: NCI-H522 lung
# K-562 leukemia = tested on: K-562 leukemia
# HCT-15 colon = tested on: HCT-15 colon
# BT-549 breast = tested on: BT-549 breast
# SR leukemia = tested on: SR leukemia
# NCI/ADR-RES ovarian = tested on: NCI/ADR-RES ovarian
# M14 melanoma = tested on: M14 melanoma
# T-47D breast = tested on: T-47D breast
# RPMI-8226 leukemia = tested on: RPMI-8226 leukemia
# DU-145 prostate = tested on: DU-145 prostate
# EKVX NSCLC = tested on: EKVX NSCLC
# KM12 colon = tested on: KM12 colon
# SNB-19 CNS = tested on: SNB-19 CNS
# UACC-62 melanoma = tested on: UACC-62 melanoma
# MALME-3M melanoma = tested on: MALME-3M melanoma
# LOX IMVI melanoma = tested on: LOX IMVI melanoma
# U251 CNS = tested on: U251 CNS
# IGROV1 ovarian = tested on: IGROV1 ovarian
# SK-OV-3 ovarian = tested on: SK-OV-3 ovarian
# NCI-H226 lung = tested on: NCI-H226 lung
smiles,measurement,setting,value
CS(=O)(=O)c1ccc2c(c1)c1c(n2S(=O)(=O)c2ccc(Cl)cc2)CCCC1,GI50,SNB-75 CNS,1.42 µM
same,TGI,SNB-75 CNS,6.15 µM
same,GI50,SF-295 CNS,4.08 µM
same,TGI,SF-295 CNS,> 100 µM
same,GI50,SK-MEL-28 melanoma,34.8 µM
same,TGI,SK-MEL-28 melanoma,> 100 µM
same,GI50,MDA-MB-435,0.583 µM
same,TGI,MDA-MB-435,3.29 µM
same,GI50,SF-539 CNS,3.15 µM
same,TGI,SF-539 CNS,> 100 µM
same,GI50,UACC-257 melanoma,10.3 µM
same,TGI,UACC-257 melanoma,> 100 µM
same,GI50,ACHN renal,7.56 µM
same,TGI,ACHN renal,> 100 µM
same,GI50,SK-MEL-2 melanoma,2.15 µM
same,TGI,SK-MEL-2 melanoma,7.44 µM
same,GI50,HOP-92 NSCLC,3.04 µM
same,TGI,HOP-92 NSCLC,> 100 µM
same,GI50,TK-10 renal,> 100 µM
same,TGI,TK-10 renal,> 100 µM
same,GI50,HCC-2998 colon,3.57 µM
same,TGI,HCC-2998 colon,> 100 µM
same,GI50,SN12C renal,5.19 µM
same,TGI,SN12C renal,> 100 µM
same,GI50,PC-3 prostate,3.42 µM
same,TGI,PC-3 prostate,> 100 µM
same,GI50,MOLT-4 leukemia,4.49 µM
same,TGI,MOLT-4 leukemia,> 100 µM
same,GI50,CAKI-1 renal,3.12 µM
same,TGI,CAKI-1 renal,> 100 µM
same,GI50,A498 renal,> 100 µM
same,TGI,A498 renal,> 100 µM
same,GI50,OVCAR-5 ovarian,5.37 µM
same,TGI,OVCAR-5 ovarian,> 100 µM
same,GI50,MDA-MB-231 breast,4.25 µM
same,TGI,MDA-MB-231 breast,> 100 µM
same,GI50,SF-268 CNS,> 100 µM
same,TGI,SF-268 CNS,> 100 µM
same,GI50,OVCAR-3 ovarian,3.56 µM
same,TGI,OVCAR-3 ovarian,> 100 µM
same,GI50,SW-620 colon,2.82 µM
same,TGI,SW-620 colon,> 100 µM
same,GI50,NCI-H460 lung,3.5 µM
same,TGI,NCI-H460 lung,> 100 µM
same,GI50,HOP-62 NSCLC,4.3 µM
same,TGI,HOP-62 NSCLC,> 100 µM
same,GI50,MCF7 breast,2.61 µM
same,TGI,MCF7 breast,> 100 µM
same,GI50,UO-31 renal,3.82 µM
same,TGI,UO-31 renal,> 100 µM
same,GI50,SK-MEL-5 melanoma,3.92 µM
same,TGI,SK-MEL-5 melanoma,> 100 µM
same,GI50,HCT-116 colon,3.5 µM
same,TGI,HCT-116 colon,> 100 µM
same,GI50,OVCAR-8 ovarian,4.11 µM
same,TGI,OVCAR-8 ovarian,> 100 µM
same,GI50,CCRF-CEM leukemia,3.16 µM
same,TGI,CCRF-CEM leukemia,> 100 µM
same,GI50,786-0 renal,4.73 µM
same,TGI,786-0 renal,> 100 µM
same,GI50,NCI-H522 lung,1.08 µM
same,TGI,NCI-H522 lung,3.39 µM
same,GI50,K-562 leukemia,0.706 µM
same,TGI,K-562 leukemia,> 100 µM
same,GI50,HCT-15 colon,1.93 µM
same,TGI,HCT-15 colon,> 100 µM
same,GI50,BT-549 breast,5.39 µM
same,TGI,BT-549 breast,> 100 µM
same,GI50,SR leukemia,0.594 µM
same,TGI,SR leukemia,> 100 µM
same,GI50,NCI/ADR-RES ovarian,2.33 µM
same,TGI,NCI/ADR-RES ovarian,> 100 µM
same,GI50,M14 melanoma,3.69 µM
same,TGI,M14 melanoma,> 100 µM
same,GI50,T-47D breast,3.71 µM
same,TGI,T-47D breast,> 100 µM
same,GI50,RPMI-8226 leukemia,3.72 µM
same,TGI,RPMI-8226 leukemia,> 100 µM
same,GI50,DU-145 prostate,4.3 µM
same,TGI,DU-145 prostate,> 100 µM
same,GI50,EKVX NSCLC,5.55 µM
same,TGI,EKVX NSCLC,> 100 µM
same,GI50,KM12 colon,3.16 µM
same,TGI,KM12 colon,> 100 µM
same,GI50,SNB-19 CNS,5.54 µM
same,TGI,SNB-19 CNS,> 100 µM
same,GI50,UACC-62 melanoma,3.14 µM
same,TGI,UACC-62 melanoma,> 100 µM
same,GI50,MALME-3M melanoma,7.11 µM
same,TGI,MALME-3M melanoma,> 100 µM
same,GI50,LOX IMVI melanoma,4.32 µM
same,TGI,LOX IMVI melanoma,> 100 µM
same,GI50,U251 CNS,4.68 µM
same,TGI,U251 CNS,> 100 µM
same,GI50,IGROV1 ovarian,5.24 µM
same,TGI,IGROV1 ovarian,> 100 µM
same,GI50,SK-OV-3 ovarian,4.95 µM
same,TGI,SK-OV-3 ovarian,> 100 µM
same,GI50,NCI-H226 lung,3.22 µM
same,TGI,NCI-H226 lung,> 100 µM
